Like-named read-outs stand apart in the source and are kept apart here.
Key:
BRG-1 = BRG-1 (Homo sapiens, UniProt P51532); test: ATPase catalytic activity assay of BRG-1 (ADP-Glo); type: biochemical; details: ATPase catalytic activity, ADP-Glo; for IC50: read-out: BRG1 IC50 (μM)*; for Emax: read-out: BRG1 Max % Inhibition
Procedure, shortened: (§1)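 Two room-temperature incubations follow the reaction: 40 min to eliminate unused ATP, then 60 min to turn ADP into ATP driving luciferase light output. Activity is read as luminescence proportional to ADP formed.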

BRM = BRM (Homo sapiens, UniProt P51531); test: ATPase catalytic activity assay of BRM (ADP-Glo); type: biochemical; details: for IC50: read-out: BRM IC50 (μM)*
Chain of BRM (P51531 whole entry): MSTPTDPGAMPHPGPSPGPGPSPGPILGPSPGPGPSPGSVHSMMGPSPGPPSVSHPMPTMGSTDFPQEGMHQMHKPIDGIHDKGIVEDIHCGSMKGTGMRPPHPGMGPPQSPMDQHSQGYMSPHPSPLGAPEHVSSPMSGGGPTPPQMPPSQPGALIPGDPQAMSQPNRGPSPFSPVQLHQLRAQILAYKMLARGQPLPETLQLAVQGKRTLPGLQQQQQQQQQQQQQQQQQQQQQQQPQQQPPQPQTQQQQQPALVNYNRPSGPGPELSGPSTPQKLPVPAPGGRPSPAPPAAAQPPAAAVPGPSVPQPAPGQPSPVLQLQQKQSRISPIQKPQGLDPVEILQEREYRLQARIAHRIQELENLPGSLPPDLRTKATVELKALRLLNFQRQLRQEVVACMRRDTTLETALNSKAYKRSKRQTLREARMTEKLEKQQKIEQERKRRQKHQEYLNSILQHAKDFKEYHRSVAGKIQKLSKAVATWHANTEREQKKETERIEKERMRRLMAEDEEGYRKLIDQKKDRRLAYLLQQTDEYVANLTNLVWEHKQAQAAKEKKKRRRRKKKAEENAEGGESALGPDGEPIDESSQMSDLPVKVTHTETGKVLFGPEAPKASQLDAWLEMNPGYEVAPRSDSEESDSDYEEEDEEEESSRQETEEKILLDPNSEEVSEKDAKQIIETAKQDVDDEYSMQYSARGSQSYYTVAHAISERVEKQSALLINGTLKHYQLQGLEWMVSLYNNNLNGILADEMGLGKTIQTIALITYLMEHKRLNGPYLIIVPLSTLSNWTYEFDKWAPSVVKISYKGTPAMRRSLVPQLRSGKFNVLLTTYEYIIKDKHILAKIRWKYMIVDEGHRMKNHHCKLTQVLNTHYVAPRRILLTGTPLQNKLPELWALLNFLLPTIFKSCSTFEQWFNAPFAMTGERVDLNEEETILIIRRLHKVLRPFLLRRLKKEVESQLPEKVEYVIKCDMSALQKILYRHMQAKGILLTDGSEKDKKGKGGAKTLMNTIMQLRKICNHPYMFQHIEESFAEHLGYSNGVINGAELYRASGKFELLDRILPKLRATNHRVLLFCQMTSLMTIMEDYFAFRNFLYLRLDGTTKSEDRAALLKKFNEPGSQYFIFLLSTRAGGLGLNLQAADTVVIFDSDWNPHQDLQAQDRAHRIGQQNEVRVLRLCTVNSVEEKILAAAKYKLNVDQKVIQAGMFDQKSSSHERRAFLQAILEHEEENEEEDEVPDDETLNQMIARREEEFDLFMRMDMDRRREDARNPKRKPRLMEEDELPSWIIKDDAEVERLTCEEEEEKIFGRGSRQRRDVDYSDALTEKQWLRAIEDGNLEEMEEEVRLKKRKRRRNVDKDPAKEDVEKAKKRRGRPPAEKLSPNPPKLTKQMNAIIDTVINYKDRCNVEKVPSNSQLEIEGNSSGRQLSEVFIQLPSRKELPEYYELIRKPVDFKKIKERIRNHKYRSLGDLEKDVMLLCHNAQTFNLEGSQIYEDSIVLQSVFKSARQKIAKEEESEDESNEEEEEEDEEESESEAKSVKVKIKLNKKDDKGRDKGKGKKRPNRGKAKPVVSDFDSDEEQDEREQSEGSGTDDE
Procedure, shortened: as §1

Chain of BRG-1 (P51532 whole entry): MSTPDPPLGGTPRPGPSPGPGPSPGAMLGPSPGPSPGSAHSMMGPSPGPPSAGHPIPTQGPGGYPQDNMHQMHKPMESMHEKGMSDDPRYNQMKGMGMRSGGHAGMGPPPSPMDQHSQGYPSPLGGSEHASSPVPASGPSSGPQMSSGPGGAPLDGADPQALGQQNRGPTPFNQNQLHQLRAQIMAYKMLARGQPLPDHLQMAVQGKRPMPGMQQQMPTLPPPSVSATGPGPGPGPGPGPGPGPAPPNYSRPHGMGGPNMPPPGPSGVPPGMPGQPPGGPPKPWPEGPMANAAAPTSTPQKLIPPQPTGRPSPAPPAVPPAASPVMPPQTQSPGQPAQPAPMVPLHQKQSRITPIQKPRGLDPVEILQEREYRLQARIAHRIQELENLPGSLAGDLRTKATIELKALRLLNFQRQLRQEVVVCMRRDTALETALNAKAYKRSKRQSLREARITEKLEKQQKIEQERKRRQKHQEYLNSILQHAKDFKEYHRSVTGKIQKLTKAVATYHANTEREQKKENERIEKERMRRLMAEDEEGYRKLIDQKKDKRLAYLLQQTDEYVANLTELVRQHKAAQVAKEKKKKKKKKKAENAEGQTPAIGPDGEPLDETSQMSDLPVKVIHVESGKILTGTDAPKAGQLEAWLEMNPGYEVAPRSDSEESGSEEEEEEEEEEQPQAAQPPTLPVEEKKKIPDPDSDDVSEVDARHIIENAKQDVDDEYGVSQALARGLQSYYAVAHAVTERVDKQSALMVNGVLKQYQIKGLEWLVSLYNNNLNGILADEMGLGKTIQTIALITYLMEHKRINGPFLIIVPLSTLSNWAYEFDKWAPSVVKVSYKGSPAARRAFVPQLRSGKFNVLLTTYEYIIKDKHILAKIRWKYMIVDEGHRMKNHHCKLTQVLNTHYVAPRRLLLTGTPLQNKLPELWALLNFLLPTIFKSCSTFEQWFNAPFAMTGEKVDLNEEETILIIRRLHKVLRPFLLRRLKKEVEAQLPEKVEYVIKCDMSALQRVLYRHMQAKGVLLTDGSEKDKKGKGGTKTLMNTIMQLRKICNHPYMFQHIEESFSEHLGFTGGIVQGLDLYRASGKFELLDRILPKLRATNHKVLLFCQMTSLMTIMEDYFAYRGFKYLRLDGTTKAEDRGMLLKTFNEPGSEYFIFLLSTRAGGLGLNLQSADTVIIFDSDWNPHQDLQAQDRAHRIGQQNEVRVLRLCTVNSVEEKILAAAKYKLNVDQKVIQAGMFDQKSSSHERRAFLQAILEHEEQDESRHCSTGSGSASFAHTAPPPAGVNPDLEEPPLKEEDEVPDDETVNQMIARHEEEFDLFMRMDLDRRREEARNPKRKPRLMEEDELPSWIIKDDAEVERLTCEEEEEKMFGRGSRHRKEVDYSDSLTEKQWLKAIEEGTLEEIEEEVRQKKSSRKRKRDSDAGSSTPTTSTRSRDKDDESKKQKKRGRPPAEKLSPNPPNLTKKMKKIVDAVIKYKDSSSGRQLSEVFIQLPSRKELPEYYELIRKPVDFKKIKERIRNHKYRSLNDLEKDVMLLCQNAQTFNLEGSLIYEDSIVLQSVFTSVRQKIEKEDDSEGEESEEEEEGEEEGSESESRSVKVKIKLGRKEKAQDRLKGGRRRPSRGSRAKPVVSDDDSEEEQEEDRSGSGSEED

| SMILES | IC50 (BRG-1) [µM] | Emax (BRG-1) [%] | BRM Max % Inhibition (BRM) [%] | IC50 (BRM) [µM] | IC50 (BRG-1; 30 nM BRG-1, 400 μM ATP) [µM] | Emax (BRG-1; 30 nM BRG-1, 400 μM ATP) [%] | BRM Max % Inhibition (BRM; 30 nM BRM, 400 μM ATP) [%] | IC50 (BRM; 30 nM BRM, 400 μM ATP) [µM] | BRG1 Max % Inhibition (BRG-1) [%] |
| --- | --- | --- | --- | --- | --- | --- | --- | --- | --- |
| C[C@@H]1CN(c2cccc(-c3csc(NC(=O)CNC(=O)c4cccc([C@]5(F)C[C@@H](O)C5)c4)n3)c2)C[C@H](C)O1 [Compound 151, N-(2-((4-(3-((cis)-2,6-dimethylmorpholino)phenyl)thiazol-2-yl)amino)-2-oxoethyl)-3-((1s,3s)-1-fluoro-3-hydroxycyclobutyl)benzamide] | 0.1 to 1 | > 95 | >95 | < 0.1 |  |  |  |  |  |
| CC(C)(CN)c1cccc(C(=O)NCC(=O)Nc2nc(-c3cccc(CO[C@H]4CC[C@H](O)CC4)c3)cs2)c1 [Compound 62, 3-(1-amino-2-methylpropan-2-yl)-N-(2-((4-(3-((((1R,4R)-4-hydroxycyclohexyl)oxy)methyl)phenyl)thiazol-2-yl)amino)-2-oxoethyl)benzamide] | > 5 | > 40 | >80 | 1 to 5 |  |  |  |  |  |
| Cc1cc(-c2cccc(-c3csc(NC(=O)CNC(=O)c4ccc5c(c4)[C@](C)(CO)CC5)n3)n2)ncn1 [Compound 203, (3R)-3-(hydroxymethyl)-3-methyl-N-[2-[[4-[6-(6-methylpyrimidin-4-yl)-2-pyridyl]thiazol-2-yl]amino]-2-oxo-ethyl]indane-5-carboxamide] | 0.1 to 1 | > 95 | >95 | < 0.1 |  |  |  |  |  |
| C[C@@H]1CN(c2cccc(-c3csc(NC(=O)CNC(=O)c4ccc5c(c4)C(C)(C#N)CO5)n3)c2)C[C@H](C)O1 (stereo in doubt) [Compound 417, (R)-3-cyano-N-(2-((4-(3-((cis)-2,6-dimethylmorpholino)phenyl)thiazol-2-yl)amino)-2-oxoethyl)-3-methyl-2,3-dihydrobenzofuran-5-carboxamide] |  |  |  |  | 0.1 to 1 | > 95 | >95 | < 0.1 |  |
| Cn1ccc2ccc(-c3csc(NC(=O)CNC(=O)c4ccc5c(c4)[C@](C)(CO)CC5)n3)cc2c1=O [Compound 177, (R)-3-(hydroxymethyl)-3-methyl-N-(2-((4-(2-methyl-1-oxo-1,2-dihydroisoquinolin-7-yl)thiazol-2-yl)amino)-2-oxoethyl)-2,3-dihydro-1H-indene-5-carboxamide] | 0.1 to 1 | > 90 | >95 | < 0.1 |  |  |  |  |  |
| C[C@@H]1CN(c2cccc(-c3csc(NC(=O)CNC(=O)c4ccc5c(c4)C(C)(O)CCO5)n3)c2)C[C@H](C)O1 (stereo partly drawn) [Compound 136, N-[2-[[4-[3-[(cis)-2,6-dimethylmorpholin-4-yl]phenyl]thiazol-2-yl]amino]-2-oxo-ethyl]-4-hydroxy-4-methylchromane-6-carboxamide] | 1 to 5 | > 70 | >90 | 0.1 to 1 |  |  |  |  |  |
| C[C@@H]1CN(c2cccc(-c3csc(NC(=O)CNC(=O)c4cccc(C5(C(F)F)CCCO5)c4)n3)c2)C[C@H](C)O1 (stereo partly drawn) [Compound 306, 3-(2-(difluoromethyl)tetrahydrofuran-2-yl)-N-(2-((4-(3-((cis)-2,6-dimethylmorpholino)phenyl)thiazol-2-yl)amino)-2-oxoethyl)benzamide] | 1 to 5 | > 95 | >95 | 0.1 to 1 |  |  |  |  |  |
| C[C@@H]1CN(c2cccc(-c3csc(NC(=O)CNC(=O)c4ccc5c(c4)[C@](C)(CO)CCO5)n3)c2)C[C@H](C)O1 [Compound 165, (R)-N-(2-((4-(3-((cis)-2,6-dimethylmorpholino)phenyl)thiazol-2-yl)amino)-2-oxoethyl)-4-(hydroxymethyl)-4-methylchroman-6-carboxamide] | > 5 | < 40 | >90 | 0.1 to 1 |  |  |  |  |  |
| COc1cccc(-c2csc(NC(=O)CNC(=O)c3ccc4c(c3)C(C)(C#N)CCO4)n2)c1 (stereo in doubt) [Compound 431, (S)-4-cyano-N-(2-((4-(3-methoxyphenyl)thiazol-2-yl)amino)-2-oxoethyl)-4-methylchromane-6-carboxamide] |  |  |  |  | 0.1 to 1 | > 95 | >95 | < 0.1 |  |
| CC(C)S(=O)(=O)c1cccc(C(=O)NCC(=O)Nc2nc(-c3cccc(-c4cc(C#N)cc(CO)c4)c3)cs2)c1 [Compound 23, N-(2-((4-(3′-cyano-5′-(hydroxymethyl)-[1,1′-biphenyl]-3-yl)thiazol-2-yl)amino)-2-oxoethyl)-3-(isopropylsulfonyl)benzamide] | 0.1 to 1 | > 80 | >90 | 0.1 to 1 |  |  |  |  |  |
| CO[C@H]1C[C@@](F)(c2cccc(C(=O)NCC(=O)Nc3nc(-c4cccc(N5C[C@@H](C)O[C@@H](C)C5)n4)cs3)c2)C1 [Compound 426, N-(2-((4-(6-((cis)-2,6-dimethylmorpholino)pyridin-2-yl)thiazol-2-yl)amino)-2-oxoethyl)-3-((cis)-1-fluoro-3-methoxycyclobutyl)benzamide] |  |  |  |  | 1 to 5 | > 95 | >95 | 0.1 to 1 |  |
| C[C@@H]1CN(c2cccc(-c3csc(NC(=O)CNC(=O)c4cccc([C@]5(C)C[C@@H](O)C5)c4)n3)c2)C[C@H](C)O1 [Compound 392, N-(2-((4-(3-((cis)-2,6-dimethylmorpholino)phenyl)thiazol-2-yl)amino)-2-oxoethyl)-3-((1r,3r)-3-hydroxy-1-methylcyclobutyl)benzamide] | > 5 | > 90 | >90 | 0.1 to 1 |  |  |  |  |  |
| CC1(C#N)CCc2ccc(C(=O)NCC(=O)Nc3nc(-c4cccc(-c5ccncc5)c4)cs3)cc21 (single isomer, unassigned) [Compound 88] | > 5 |  | >50 | 0.1 to 1 |  |  |  |  | >30 |
| Cc1cc(-c2cccc(-c3csc(NC(=O)CNC(=O)c4ccc5c(c4)[C@](C)(CO)CC5)n3)c2)nc(C)n1 [Compound 228, (3R)-N-[2-[[4-[3-(2,6-dimethylpyrimidin-4-yl)phenyl]thiazol-2-yl]amino]-2-oxo-ethyl]-3-(hydroxymethyl)-3-methyl-indane-5-carboxamide] | < 0.1 | > 95 | >95 | < 0.1 |  |  |  |  |  |
| CSCC[C@H](NC(=O)c1ccc2c(c1)C(C)(O)C(=O)N2)C(=O)Nc1nc(-c2ccccc2)cs1 (stereo partly drawn) [Compound 85, 3-hydroxy-3-methyl-N—((S)-4-(methylthio)-1-oxo-1-((4-phenylthiazol-2-yl)amino)butan-2-yl)-2-oxoindoline-5-carboxamide] | > 5 | > 60 | >80 | > 5 |  |  |  |  |  |
| C[C@@]1(F)COCc2ccc(C(=O)NCC(=O)Nc3nc(C4CCOCC4)cs3)cc21 [Compound 297, (S)-4-fluoro-4-methyl-N-(2-oxo-2-((4-(tetrahydro-2H-pyran-4-yl)thiazol-2-yl)amino)ethyl)isochromane-6-carboxamide] | 1 to 5 | > 85 | >95 | 0.1 to 1 |  |  |  |  |  |
| C[C@@H]1CN(c2cccc(-c3csc(NC(=O)CNC(=O)c4ccc5c(c4)S(=O)(=O)CCC5)n3)c2)C[C@H](C)O1 [Compound 396, N-(2-((4-(3-((cis)-2,6-dimethylmorpholino)phenyl)thiazol-2-yl)amino)-2-oxoethyl)thiochromane-7-carboxamide 1,1-dioxide] | 1 to 5 | > 90 | >90 | 0.1 to 1 |  |  |  |  |  |
| CC1(C#N)CCOc2ccc(C(=O)NCC(=O)Nc3nc(-c4cccc([C@H]5CC5(F)F)c4)cs3)cc21 (stereo in doubt) [Compound 428, (S)-4-cyano-N-(2-((4-(3-((R)-2,2-difluorocyclopropyl)phenyl)thiazol-2-yl)amino)-2-oxoethyl)-4-methylchromane-6-carboxamide] |  |  |  |  | 0.1 to 1 | > 95 | >95 | < 0.1 |  |
| Cc1cc(-c2cccc(-c3csc(NC(=O)CNC(=O)c4cccc(C(C)(C)CN)c4)n3)c2)ncn1 [Compound 98] | 1 to 5 | > 70 | >95 | 0.1 to 1 |  |  |  |  |  |
| C[C@@H]1CN(c2cccc(-c3csc(NC(=O)CNC(=O)c4cccc(C5(O)COC5)c4)n3)c2)C[C@H](C)O1 [Compound 184, N-(2-((4-(3-((2R,6S)-2,6-dimethylmorpholino)phenyl)thiazol-2-yl)amino)-2-oxoethyl)-3-(3-hydroxyoxetan-3-yl)benzamide] | 1 to 5 | > 80 | >90 | 0.1 to 1 |  |  |  |  |  |
| Cc1nccc(-c2cccc(-c3csc(NC(=O)CNC(=O)c4cccc(C(C)(C)CO)c4)n3)n2)n1 [Compound 222, 3-(2-hydroxy-1,1-dimethyl-ethyl)-N-[2-[[4-[6-(2-methylpyrimidin-4-yl)-2-pyridyl]thiazol-2-yl]amino]-2-oxo-ethyl]benzamide] | 0.1 to 1 | > 80 | >95 | < 0.1 |  |  |  |  |  |
| C[C@@H]1CN(c2cccc(-c3csc(NC(=O)CNC(=O)c4ccc5c(c4)C(O)(C(F)F)COC5)n3)c2)C[C@H](C)O1 (stereo partly drawn) [Compound 326, 4-(difluoromethyl)-N-(2-((4-(3-((cis)-2,6-dimethylmorpholino)phenyl)thiazol-2-yl)amino)-2-oxoethyl)-4-hydroxyisochromane-6-carboxamide] | 0.1 to 1 | > 95 | >95 | < 0.1 |  |  |  |  |  |
